# Earlier results, collected in patent publication US9687433B2, “Anhydrous depigmenting compositions comprising phenolic compounds” (Ecstasy LLC, priority 2015, dated 2017).
# Conditions: degraded to hydroquinone
smiles,measurement,value
"Oc1ccc(OC2CCCCO2)cc1 (stereo not shown) [deoxyarbutin, 4-[(tetrahydro-2H-pyran-2-yl)oxy] phenol]",stability in aqueous solutions,thermolabile and acid sensitive
